Experimental data: paper PMC8749467, “A new ALK inhibitor overcomes resistance to first‐ and second‐generation inhibitors in NSCLC” (EMBO Molecular Medicine, 2021)
Read-outs that look alike come from different tables or passages of the source. One block for each molecule: values may come before it.

What was measured:
kinase panels = details: cited from earlier work
[1] = tested on: parental (wild-type) Ba/F3 cells; assay: Cell survival assay (MTS); type: cell-based, murine; details: Mus musculus, BaF3, 48 h
EML4-ALK Ba/F3 cells = assay: Cell survival assay (MTS); details: EML4-ALK Ba/F3, 48 h
[2] = Pharmacokinetics in ICR mice; type: in vivo; details: for concentration at […] / concentration at 0.25 h / concentration at 0.5 h / concentration at 1 h / concentration at 2 h / concentration at 4 h / concentration at 8 h / concentration at 24 h: ICR, blood, read-out: Blood drug concentration; for concentration at […]: 0.083 h; for MRT inf: read-out: MRT(0-∞); for Vd: read-out: Vz;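 as to all read-outs here: drug levels in collected samples measured by LC-MS/MS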
[3] = reported data ref Huber et al, 2014
[4] = mouse, plasma, IV, 5 mg/kg, ICR mice
[5] = mouse, plasma, IV, 30 mg/kg, ICR mice
[6] = mouse, plasma, IV, 60 mg/kg, ICR mice
[7] = mouse, plasma, PO, 10 mg/kg, ICR mice

Structure (SMILES): C[C@@H](Oc1cc(-c2cnn(C3CCNCC3)c2)cnc1N)c1c(Cl)ccc(F)c1Cl [Crizotinib, crizotinib]
S(35) (kinase panels; [3]): 0.21 | number of kinases with ctrl ≤35% (kinase panels; [3]): 94 | IC50 [1]: 1120 nM

Structure (SMILES): CCc1cc2c(cc1N1CCC(N3CCOCC3)CC1)C(C)(C)c1[nH]c3cc(C#N)ccc3c1C2=O [Alectinib, alectinib]
S(10) (kinase panels; reported data ref Sakamoto et al, 2011): 0.07

Structure (SMILES): Cc1cc(Nc2ncc(Cl)c(Nc3ccccc3S(=O)(=O)C(C)C)n2)c(OC(C)C)cc1C1CCNCC1 [Ceritinib, ceritinib]
IC50 (EML4-ALK Ba/F3 cells; Mus musculus, BaF3, 48 h): 1.2 nM | S(10) (kinase panels; reported data ref Jang et al, 2017): 0.19

Structure (SMILES): COc1cc(N2CCC(N3CCN(C)CC3)CC2)ccc1Nc1ncc(Cl)c(Nc2ccccc2P(C)(C)=O)n1 [Brigatinib, brigatinib]
IC50 (EML4-ALK Ba/F3 cells; Mus musculus, BaF3, 48 h): 17.3 nM | S(10) (kinase panels; reported data ref Zhang et al, 2016): 0.34

concentration at […] ([2]; mouse, IV, 5 mg/kg, mice): 4300 ng/mL | concentration at 0.25 h ([2]; mouse, IV, 5 mg/kg, mice): 2430 ng/mL | concentration at 0.5 h ([2]; mouse, IV, 5 mg/kg, mice): 1530 ng/mL | concentration at 1 h ([2]; mouse, IV, 5 mg/kg, mice): 613 ng/mL | concentration at 2 h ([2]; mouse, IV, 5 mg/kg, mice): 308 ng/mL | concentration at 4 h ([2]; mouse, IV, 5 mg/kg, mice): 72.8 ng/mL | concentration at 8 h ([2]; mouse, IV, 5 mg/kg, mice): 28.7 ng/mL | concentration at 24 h ([2]; mouse, IV, 5 mg/kg, mice): 2.09 ng/mL | concentration at […] ([2]; mouse, IV, 30 mg/kg, mice): 8260 ng/mL | concentration at 0.25 h ([2]; mouse, IV, 30 mg/kg, mice): 5430 ng/mL | concentration at 0.5 h ([2]; mouse, IV, 30 mg/kg, mice): 3870 ng/mL | concentration at 1 h ([2]; mouse, IV, 30 mg/kg, mice): 2990 ng/mL | concentration at 2 h ([2]; mouse, IV, 30 mg/kg, mice): 2060 ng/mL | concentration at 4 h ([2]; mouse, IV, 30 mg/kg, mice): 688 ng/mL | concentration at 8 h ([2]; mouse, IV, 30 mg/kg, mice): 171 ng/mL | concentration at 24 h ([2]; mouse, IV, 30 mg/kg, mice): 17.9 ng/mL | concentration at […] ([2]; mouse, IV, 60 mg/kg, mice): 12400 ng/mL | concentration at 0.25 h ([2]; mouse, IV, 60 mg/kg, mice): 7190 ng/mL | concentration at 0.5 h ([2]; mouse, IV, 60 mg/kg, mice): 6430 ng/mL | concentration at 1 h ([2]; mouse, IV, 60 mg/kg, mice): 5430 ng/mL | concentration at 2 h ([2]; mouse, IV, 60 mg/kg, mice): 2910 ng/mL | concentration at 4 h ([2]; mouse, IV, 60 mg/kg, mice): 2580 ng/mL | concentration at 8 h ([2]; mouse, IV, 60 mg/kg, mice): 555 ng/mL | concentration at 24 h ([2]; mouse, IV, 60 mg/kg, mice): 29.6 ng/mL | dose dependence of blood drug concentrations ([2]; IV, 5, 30 and 60 mg/kg, mice): linear increase | AUC(0-inf) [2, 4]: 3310 ng·h/mL | AUC(0-t) [2, 4]: 3300 ng·h/mL | C0 [2, 4]: 5720 ng/mL | Cmax [2, 4]: 4300 ng/mL | Tmax [2, 4]: 0.08 h | clearance [2, 4]: 25.2 mL/min/kg | half-life [2, 4]: 3.99 h | MRT inf [2, 4]: 1.74 h | Vd [2, 4]: 8.7 L/kg | AUC(0-inf) [2, 5]: 13200 ng·h/mL | AUC(0-t) [2, 5]: 13100 ng·h/mL | C0 [2, 5]: 10200 ng/mL | clearance [2, 5]: 37.8 mL/min/kg | half-life [2, 5]: 4.93 h | MRT inf [2, 5]: 2.95 h | Vd [2, 5]: 6.7 L/kg | AUC(0-inf) [2, 6]: 26400 ng·h/mL | AUC(0-t) [2, 6]: 26200 ng·h/mL | C0 [2, 6]: 16300 ng/mL | clearance [2, 6]: 37.8 mL/min/kg | half-life [2, 6]: 4.01 h | MRT inf [2, 6]: 3.39 h | Vd [2, 6]: 7.71 L/kg | AUC(0-inf) [2, 7]: 1270 ng·h/mL | AUC(0-t) [2, 7]: 1210 ng·h/mL | Cmax [2, 7]: 474 ng/mL | Tmax [2, 7]: 0.5 h | half-life [2, 7]: 1.53 h | bioavailability ([2]; mouse, plasma, PO, 10 mg/kg, ICR mice, read-out: F (oral bioavailability)): 18.3% | MRT inf [2, 7]: 3.08 h
Structure (SMILES): COc1cc2c(cc1Nc1nc(Nc3ccccc3S(=O)(=O)C(C)C)c3[nH]ccc3n1)N(C(=O)CN(C)C)CC2 [XMU-MP-5]

Structure (SMILES): C[C@H]1Oc2cc(cnc2N)-c2c(nn(C)c2C#N)CN(C)C(=O)c2ccc(F)cc21 [Lorlatinib, lorlatinib]
IC50 (EML4-ALK Ba/F3 cells): 1.5 nM
